Measurements reported in patent publication US20250332112A1, “IONIZABLE CATIONIC LIPIDS FOR LIPID NANOPARTICLES” (GENEVANT SCIENCES GMBH, priority 2022, published 2025).

Key:
[1] = cited from earlier work
[2] = Particle characteristics of LNPs containing EGFP mRNA and novel ionizable lipids; type: physicochemical; details: EGFP mRNA LNP 1.6:54.6:32.8:10.9
In short: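 LNPs of PEG-lipid, ionizable lipid, cholesterol and phospholipid in ethanol were mixed 1:1 with mRNA in 100 mM acetate pH 5 via T-junction, diluted in PBS, dialysed, concentrated to ~0.6 mg/mL and exchanged into 5 mM Tris, 10% sucrose, pH 8. Size and polydispersity by Zetasizer; nucleic acid by RiboGreen.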

[3] = Parent ionizable lipid remaining in liver at 24 h after EGFP mRNA LNP (LC-MS); type: in vivo; details: 24 h after IV 0.5 mg/kg EGFP mRNA LNP, female BALB/c mice (n = 4)
[4] = test system: EGFP expression in the liver; assay: Dose response of EGFP mRNA LNP, EGFP expression in liver; type: in vivo; details: 24 h, female BALB/c mice (n = 4)
Experimental: At 24 h post-dose, the novel lipid formulations reported dose-dependent increases in EGFP expression in the liver (Table 32).

[5] = Lipid clearance from liver over time after EGFP mRNA LNP (LC-MS); type: in vivo; details: IV 0.5 mg/kg EGFP mRNA LNP, female BALB/c mice (n = 4)
Experimental: Liver tissues were treated with PBS and homogenized with a FastPrep machine, 3 cycles of 5 m/s×15 s. Homogenates from the PBS-treated control animals was pooled and used for standard curve preparation. Samples were extracted into a deep well plate with 250 μL of an internal suitability standard. Plates were centrifuged for 15 min at 4° C. and 2000 rpm. Analysis was performed using an Agilent 6520 QTOF coupled to an Agilent 1290 UHPLC, using reverse-phase LC separation. Quantitation of the ionizable lipid was by MS/MS against a calibration curve spiked into appropriately matched blank matrix. Calibration used a similar class of synthetic lipid as internal standard.
At various timepoints post-dose, lipid levels were assessed in the liver. Some novel ionizable lipids reported more rapid clearance rates compared to the benchmark (Table 33).

[6] = test system: EGFP expression in the liver; assay: EGFP expression in liver after intravenous EGFP mRNA LNP (ELISA); details: 0.5 mg/kg IV, 24 h post-IV administration, BALB/c mice (n = 4)
Experimental: LNP formulations encapsulating enhanced green fluorescent protein mRNA were injected intravenously at 0.5 mg/kg to female BALB/c mice (6-8 weeks old). On day of injection, the LNP stocks were filtered and diluted to the required dosing concentration with phosphate buffered saline. At 24 hours post-administration, animals were anaesthetized with a lethal dosage of ketamine/xylazine. Liver samples (left lateral lobe) were collected, weighed, and flash frozen in liquid nitrogen. Liver samples were stored in FastPrep® tubes at −80° C. until analyzed for EGFP expression.
Liver homogenates were prepared in cell extraction buffer, diluted, and analyzed for EGFP protein levels using ELISA, according to manufacturer's instructions (Abcam, GFP ELISA Kit).

Compound | EGFP expression ([4]; 0.3 mg/kg IV) [pg EGFP/g liver] | EGFP expression ([4]; 1 mg/kg IV) [pg EGFP/g liver] | EGFP expression ([4]; 3 mg/kg IV) [pg EGFP/g liver] | Parent ionizable lipid remaining in liver, Average ([5]; 0.25 h post-dose) [nmol/g liver] | Parent ionizable lipid remaining in liver, Average ([5]; 1 h post-dose) [nmol/g liver] | Parent ionizable lipid remaining in liver, Average ([5]; 3 h post-dose) [nmol/g liver] | Parent ionizable lipid remaining in liver, Average ([5]; 6 h post-dose) [nmol/g liver] | Parent ionizable lipid remaining in liver, Average ([5]; 24 h post-dose) [nmol/g liver] | Parent ionizable lipid remaining in liver, Average ([5]; 168 h post-dose) [nmol/g liver] | other results
CCCCCCCCC(CCCCCC)C(=O)OCCCCCCN(CCCCO)CCCCCCOC(=O)C(CCCCCC)CCCCCCCC (stereo not drawn) [ALC-0315] | – | – | – | – | – | – | – | – | – | Rate of metabolism (in words) ([1]; ref: Comirnaty Assessment Report, European Medicines Agency): metabolize at a similar rate to MC3
CCCCCCCCCCN(C(=O)CCCN(C)C)C(CCCCCCCCC)CCCCC(F)(F)C(=O)OC(CCCCCCC)CCCCCCC (stereo not drawn) [Compound 101, Pentadecan-8-yl 7-(N-decyl-4-(dimethylamino)butanamido)-2,2-difluorohexadecanoate] | 2.65e+07 | 1.04e+08 | 3.9e+08 | 23.8 | 42.4 | 26.9 | 30.6 | 12.6 | 0.6 | Final Product % EE ([2]; Table 21): 100%; Final Product PDI ([2]; Table 21): 0.10; Final Product Z-avg ([2]; Table 21): 70 nm; Parent ionizable lipid remaining in liver, Average ([3]; Table 29): 16.30 nmol/g liver; EGFP ([6]; Table 25): 2.25E+05 pg/g liver
CCCCCCCCCCN(C(=O)CCCN(C)C)C(CCCCCCCCC)CCCCCCC(F)C(=O)OC(CCCCCCCC)CCCCCCCC (stereo not drawn) [Compound 115, Heptadecan-9-yl 9-(N-decyl-4-(dimethylamino)butanamido)-2-fluorooctadecanoate] | 2.98e+07 | 1.31e+08 | 3.41e+08 | 36.7 | 51.3 | 44.8 | 45.3 | 0.0 | 1.3 | Final Product % EE ([2]; Table 22): 98%; Final Product PDI ([2]; Table 22): 0.04; Final Product Z-avg ([2]; Table 22): 72 nm; Parent ionizable lipid remaining in liver, Average ([3]; Table 30): 27.15 nmol/g liver; EGFP ([6]; Table 26): 6.06E+07 pg/g liver
CCCCC/C=C\C/C=C\CCCCCCCCC(CCCCCCCC/C=C\C/C=C\CCCCC)OC(=O)CCCN(C)C [MC3] | – | – | – | – | – | – | – | – | – | Clearance from target tissues (in words) ([1]; in vivo): take several weeks to clear from target tissues
